Measurements from ChEMBL document CHEMBL6153048, “Synthesis and pharmacological evaluation of natural product diphyllin derivatives against head and neck squamous cell carcinoma” (Eur J Med Chem, 2025).

Legend:
[1] = test system: CAL-27; test: Antiproliferative activity against human CAL-27 cells assessed as inhibition rate at 0.1 uM incubated for 72 hrs by MTT assay relative to control; format: functional
[2] = Antiproliferative activity against human HN-6 cells assessed as inhibition rate at 0.1 uM incubated for 72 hrs by MTT assay relative to control; format: functional
[3] = Antiproliferative activity against human WSU HN-30 cells assessed as inhibition rate at 0.1 uM incubated for 72 hrs by MTT assay relative to control; format: functional; conditions: WSU-HN30
[4] = test system: SCC-9; test: Antiproliferative activity against human SCC-9 cells assessed as inhibition rate at 0.1 uM incubated for 72 hrs by MTT assay relative to control; format: functional
[5] = test system: SCC-25; test: Antiproliferative activity against human SCC-25 cells assessed as inhibition rate at 0.1 uM incubated for 72 hrs by MTT assay relative to control; format: functional
[6] = Antiproliferative activity against human L02 cells assessed as inhibition rate at 0.1 uM incubated for 72 hrs by MTT assay relative to control; format: toxicity, cell-based
[7] = test system: CAL-27; test: Cytotoxicity against human CAL-27 cells incubated for 72 hrs by MTT assay; format: functional, cell-based; conditions: CAL-27, 72 h
[8] = Cytotoxicity against human HN-6 cells incubated for 72 hrs by MTT assay; format: functional, cell-based; conditions: HN-6, 72 h
[9] = Cytotoxicity against human […] incubated for 72 hrs by MTT assay; format: functional, cell-based; conditions: WSU-HN30, 72 h
[10] = test system: SCC-9; test: Cytotoxicity against human SCC-9 cells incubated for 72 hrs by MTT assay; format: functional, cell-based; conditions: SCC-9, 72 h
[11] = test system: SCC-25; test: Cytotoxicity against human SCC-25 cells incubated for 72 hrs by MTT assay; format: functional, cell-based; conditions: SCC-25, 72 h
[12] = Cytotoxicity against human L02 cells incubated for 72 hrs by MTT assay; format: toxicity, cell-based

Compound	inhibition at 0.1 µM [1]	inhibition at 0.1 µM [2]	inhibition at 0.1 µM [3]	inhibition at 0.1 µM [4]	inhibition at 0.1 µM [5]	inhibition at 72 h, 0.1 µM [6]	IC50 [7]	IC50 [8]	IC50 [9]	IC50 [10]	IC50 [11]	IC50 at 72 h [12]
COc1cc2c(OCCOCCNC(=O)C3CNCC(F)(F)C3)c3c(c(-c4ccc5c(c4)OCO5)c2cc1OC)C(=O)OC3 (centres undefined)	2.03%	10.2%	11.7%	25.6%	23.2%	10.6%						
COc1cc2c(O[C@@H]3O[C@@H]4CO[C@@H](c5csc(Br)c5)O[C@H]4[C@H](O)[C@H]3O)c3c(c(-c4ccc5c(c4)OCO5)c2cc1OC)C(=O)OC3	78.3%	57.6%	49.9%	72.3%	58.4%	20.8%	14.5 nM	6.07 nM	7.33 nM	16.4 nM	86.4 nM	3680 nM
COc1cc2c(OCCOCCNC(=O)CON)c3c(c(-c4ccc5c(c4)OCO5)c2cc1OC)C(=O)OC3	33%	18.7%	23.5%	18.7%	31.8%	9.46%						
COc1cc2c(O[C@@H]3O[C@@H]4CO[C@@H](C5CCCCC5)O[C@H]4[C@H](O)[C@H]3O)c3c(c(-c4ccc5c(c4)OCO5)c2cc1OC)C(=O)OC3	50.5%	62.1%	40.6%	46.6%	47.4%	11.5%	11.6 nM	14.8 nM	35.2 nM	29.7 nM	15.2 nM	4670 nM
COc1cc2c(O[C@@H]3O[C@@H]4CO[C@@H](c5cccs5)O[C@H]4[C@H](O)[C@H]3O)c3c(c(-c4ccc5c(c4)OCO5)c2cc1OC)C(=O)OC3	50.7%	56.3%	41.3%	54%	52.5%	7.19%	18.1 nM	68.1 nM	120 nM	31.5 nM	9.34 nM	> 10000 nM
COc1cc([C@@H]2c3cc4c(cc3[C@@H](O[C@@H]3O[C@@H]5CO[C@@H](C)O[C@H]5[C@H](O)[C@H]3O)[C@H]3COC(=O)[C@H]23)OCO4)cc(OC)c1O [ETOPOSIDE]							7490 nM	> 10000 nM	1700 nM	3700 nM	693 nM	> 10000 nM
COc1cc2c(OCCOCCNC(=O)[C@@H]3CC(F)(F)CN3)c3c(c(-c4ccc5c(c4)OCO5)c2cc1OC)C(=O)OC3	2.62%	22.3%	19.9%	35.3%	41.7%	8.13%						
COc1cc2c(NC(=O)C(F)(F)[C@]3(OCc4ccccc4)O[C@H](COCc4ccccc4)[C@@H](OCc4ccccc4)[C@H](OCc4ccccc4)[C@H]3OCc3ccccc3)c3c(c(-c4ccc5c(c4)OCO5)c2cc1OC)C(=O)OC3	26.1%	12.7%	8.5%	14.7%	17.8%	3.29%						
COc1cc2c(OCCOCCNC(=O)C3=C[C@H](O)[C@H](O)[C@@H](O)C3)c3c(c(-c4ccc5c(c4)OCO5)c2cc1OC)C(=O)OC3	31.1%	27.2%	16.2%	22.2%	31.4%	5.67%						
CCC(CC)[C@@H]1OC[C@H]2O[C@@H](Oc3c4c(c(-c5ccc6c(c5)OCO6)c5cc(OC)c(OC)cc35)C(=O)OC4)[C@H](O)[C@@H](O)[C@@H]2O1	24.3%	55.1%	38.3%	43.2%	44.9%	8.83%						
COc1cc2c(O[C@@H]3O[C@@H]4CO[C@@H](c5ccc(SC)cc5)O[C@H]4[C@H](O)[C@H]3O)c3c(c(-c4ccc5c(c4)OCO5)c2cc1OC)C(=O)OC3	35.9%	57.1%	47.4%	41.1%	35.4%	6.84%						
COc1cc2c(OCCN)c3c(c(-c4ccc5c(c4)OCO5)c2cc1OC)C(=O)OC3	6.31%	28.2%	18.9%	30.4%	10.8%	7.89%						
COc1cc2c(O[C@@H]3O[C@@H]4CO[C@@H](c5ccc(C)s5)O[C@H]4[C@H](O)[C@H]3O)c3c(c(-c4ccc5c(c4)OCO5)c2cc1OC)C(=O)OC3	32.4%	57.2%	40.1%	46.2%	41%	9.5%						
COc1cc2c(NC(=O)C(F)(F)[C@]3(O)O[C@H](CO)[C@@H](O)[C@H](O)[C@H]3O)c3c(c(-c4ccc5c(c4)OCO5)c2cc1OC)C(=O)OC3	27.6%	13.1%	12.3%	19.4%	28.2%	4.58%						
COc1cc2c(NC(=O)C(F)(F)[C@]3(O)O[C@@H]4CO[C@@H](c5ccsc5)O[C@H]4[C@H](O)[C@H]3O)c3c(c(-c4ccc5c(c4)OCO5)c2cc1OC)C(=O)OC3	25.8%	14.5%	14%	16.6%	23.6%	3.32%						
COc1cc2c(OCCOCCOCCN)c3c(c(-c4ccc5c(c4)OCO5)c2cc1OC)C(=O)OC3	67.2%	29.5%	25.2%	31.5%	51.1%	18.2%	40.6 nM	94.6 nM	123 nM	130 nM	92.6 nM	7870 nM
COc1cc2c(O[C@@H]3O[C@@H]4CO[C@@H](c5ccsc5)O[C@H]4[C@H](OC(C)=O)[C@H]3OC(C)=O)c3c(c(-c4ccc5c(c4)OCO5)c2cc1OC)C(=O)OC3	48.2%	61.1%	49.4%	45.8%	47.4%	9.07%	20.1 nM	11.6 nM	92.6 nM	16.1 nM	43.3 nM	> 10000 nM
COc1cc2c(O[C@@H]3O[C@@H]4CO[C@@H](C5CCCC5)O[C@H]4[C@H](O)[C@H]3O)c3c(c(-c4ccc5c(c4)OCO5)c2cc1OC)C(=O)OC3	8.02%	54.2%	40.5%	42%	49.1%	9.37%						
COc1cc2c(OCCOCCNC(=O)[C@@H]3CCC(=O)N3)c3c(c(-c4ccc5c(c4)OCO5)c2cc1OC)C(=O)OC3	29.5%	19.8%	15.9%	8.65%	18.5%	6.04%						
COc1cc2c(OCCOCCNC(=O)[C@H]3[C@@H]4CNC[C@@H]43)c3c(c(-c4ccc5c(c4)OCO5)c2cc1OC)C(=O)OC3	2.26%	7.38%	6.67%	17.5%	14.7%	3.53%						
COc1cc2c(O[C@@H]3O[C@@H]4CO[C@@H](c5cccc(C(F)(F)F)c5)O[C@H]4[C@H](O)[C@H]3O)c3c(c(-c4ccc5c(c4)OCO5)c2cc1OC)C(=O)OC3	37.4%	60.6%	40.9%	37.5%	33.6%	9.53%						
COc1cc2c(OCCOCCNC(=O)C(F)(F)[C@]3(O)O[C@H](CO)[C@@H](O)[C@H](O)[C@H]3O)c3c(c(-c4ccc5c(c4)OCO5)c2cc1OC)C(=O)OC3	1.73%	4.3%	8.25%	13.9%	10.2%	1.74%						
COc1cc2c(OCCOCCNC(=O)C3(F)CNC3)c3c(c(-c4ccc5c(c4)OCO5)c2cc1OC)C(=O)OC3	9.95%	10.8%	10.7%	32.6%	19.5%	3.51%						
COc1cc2c(O[C@@H]3O[C@@H]4CO[C@@H](C5CCOCC5)O[C@H]4[C@H](O)[C@H]3O)c3c(c(-c4ccc5c(c4)OCO5)c2cc1OC)C(=O)OC3	35.5%	58.9%	28.9%	35.4%	24.6%	6.66%						
